The term IC50 denotes the midpoint of a concentration-inhibition curve.

The target in the assay is T1, NLRP3 (Homo sapiens, UniProt Q96P20).
T1 construct: host or cells: THP-1 cells differentiated with PMA
T1 sequence (Q96P20 whole entry): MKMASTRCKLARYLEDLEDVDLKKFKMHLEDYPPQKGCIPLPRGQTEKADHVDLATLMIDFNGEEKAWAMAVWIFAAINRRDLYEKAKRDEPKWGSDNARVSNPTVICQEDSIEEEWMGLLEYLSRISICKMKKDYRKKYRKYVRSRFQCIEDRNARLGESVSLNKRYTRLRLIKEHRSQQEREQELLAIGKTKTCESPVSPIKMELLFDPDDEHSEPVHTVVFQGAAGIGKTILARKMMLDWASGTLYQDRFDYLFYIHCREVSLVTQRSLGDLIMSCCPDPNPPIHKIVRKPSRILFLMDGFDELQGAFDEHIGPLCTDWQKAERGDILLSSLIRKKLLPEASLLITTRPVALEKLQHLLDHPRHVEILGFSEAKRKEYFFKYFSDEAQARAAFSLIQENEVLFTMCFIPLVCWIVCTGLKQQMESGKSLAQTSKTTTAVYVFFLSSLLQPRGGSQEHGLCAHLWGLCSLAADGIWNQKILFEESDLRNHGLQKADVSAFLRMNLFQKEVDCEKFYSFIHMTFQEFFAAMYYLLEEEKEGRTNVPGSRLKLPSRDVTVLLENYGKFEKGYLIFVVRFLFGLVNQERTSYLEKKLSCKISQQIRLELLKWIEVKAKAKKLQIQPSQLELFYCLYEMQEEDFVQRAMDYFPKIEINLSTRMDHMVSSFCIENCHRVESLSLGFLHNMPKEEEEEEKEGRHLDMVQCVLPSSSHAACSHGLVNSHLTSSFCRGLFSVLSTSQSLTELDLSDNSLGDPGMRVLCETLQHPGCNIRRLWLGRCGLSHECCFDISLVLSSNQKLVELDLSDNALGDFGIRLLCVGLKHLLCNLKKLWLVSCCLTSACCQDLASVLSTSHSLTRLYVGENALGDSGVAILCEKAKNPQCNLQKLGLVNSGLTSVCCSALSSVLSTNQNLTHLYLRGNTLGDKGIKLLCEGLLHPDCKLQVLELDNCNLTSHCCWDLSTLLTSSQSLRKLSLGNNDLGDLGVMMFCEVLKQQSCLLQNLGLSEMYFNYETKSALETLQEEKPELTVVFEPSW
The assay is described as follows: IL-1β Secretion Assay (NLRP3-dependent IL1β secretion in THP1 cells). It is filed as cell-based. The settings on record: PMA-differentiated THP-1 cells; compounds incubated 20 h; 2.5 μM Nigericin 3 h; HTRF IL-1β readout; read-out: IC50 IL-1β Inhibition. In outline: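 IL-1β in conditioned media, measured by HTRF after 3 h 2.5 μM nigericin stimulation, gave % inhibition fitted logistically for IC50. Before that, PMA-differentiated (100 ng/mL, 24 h) THP-1 cells were preincubated 20 h with 7 compound concentrations (3-fold serial, DMSO 1:200).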
As to `COc1ccc(-c2nnc(NC(C)c3cccnc3)n3cncc23)c(OC(F)(F)F)c1` (stereo not drawn) [Compound 232, 1-[4-methoxy-2-(trifluoromethoxy)phenyl]-N-[1-(pyridin-3-yl)ethyl]imidazo[1,5-d][1,2,4]triazin-4-amine], the IC50 lay within 100 to 300 nM. On to `OCCN1CCC[C@@H](Nc2nnc(-c3ccc(C(F)(F)F)cc3OC(F)(F)F)c3cccn23)C1` [Compound 120, 2-[(3R)-3-({1-[2-(trifluoromethoxy)-4-(trifluoromethyl)phenyl]pyrrolo[1,2-d][1,2,4]triazin-4-yl}amino)piperidin-1-yl]ethan-1-ol], for which the IC50 was under 1 nM.

With `CN1CCC[C@@H](Nc2nnc(-c3ccc(C(F)(F)F)cc3OC(F)(F)F)c3cccn23)C1` [Compound 140, N-[(3R)-1-methylpiperidin-3-yl]-1-[2-(trifluoromethoxy)-4-(trifluoromethyl)phenyl]pyrrolo[1,2-d][1,2,4]triazin-4-amine], the IC50 was under 1 nM.

With `Cc1ccc(-c2nnc(N[C@@H]3CCCN(C)C3)n3cc(C)cc23)c(C(F)F)c1` [Compound 23, 1-[2-(difluoromethyl)-4-methylphenyl]-7-methyl-N-[(3R)-1-methylpiperidin-3-yl]pyrrolo[1,2-d][1,2,4]triazin-4-amine], the IC50 was 1 to 10 nM. Then `CCN1CCC[C@@H](Nc2nnc(-c3ccc(C(F)(F)F)cc3Cl)c3cc(C)nn23)C1` [Compound 375, 4-[2-chloro-4-(trifluoromethyl)phenyl]-N-[(3R)-1-ethylpiperidin-3-yl]-2-methylpyrazolo[1,5-d][1,2,4]triazin-7-amine], with 1 to 10 nM. With `COc1ccc(-c2nnc(NC3CC(C(C)(C)O)C3)n3cncc23)c(CC(F)(F)F)c1` (stereo not drawn) [Compound 327, 2-[3-({1-[4-methoxy-2-(2,2,2-trifluoroethyl)phenyl]imidazo[1,5-d][1,2,4]triazin-4-yl}amino)cyclobutyl]propan-2-ol], the IC50 lay within 10 to 100 nM. The figure for `COc1ccc(-c2nnc(N[C@H]3C[C@@](C)(O)C3)n3cccc23)c(OC(F)(F)F)c1` [Compound 9, (1s,3s)-3-({1-[4-methoxy-2-(trifluoromethoxy)phenyl]pyrrolo[1,2-d][1,2,4]triazin-4-yl}amino)-1-methylcyclobutan-1-ol] is 1 to 10 nM; for `COc1ccc(-c2nnc(N[C@H]3C[C@@](C)(O)C3)n3cncc23)c(C2CC2)c1` [Compound 319, (1s,3s)-3-{[1-(2-cyclopropyl-4-methoxyphenyl)imidazo[1,5-d][1,2,4]triazin-4-yl]amino}-1-methylcyclobutan-1-ol] it is 10 to 100 nM; for `O[C@@H]1COCC[C@@H]1Nc1nnc(-c2ccc(C(F)(F)F)cc2CC(F)(F)F)c2cccn12` [Compound 115, (3S,4S)-4-({1-[2-(2,2,2-trifluoroethyl)-4-(trifluoromethyl)phenyl]pyrrolo[1,2-d][1,2,4]triazin-4-yl}amino)oxan-3-ol] it is 1 to 10 nM.

In the case of `OCCN1CCC[C@@H](Nc2nnc(-c3ccc(Cl)cc3OC(F)F)c3cncn23)C1` [Compound 192, 2-[(3R)-3-({1-[4-chloro-2-(difluoromethoxy)phenyl]imidazo[1,5-d][1,2,4]triazin-4-yl}amino)piperidin-1-yl]ethan-1-ol], the IC50 was in the range of 10 to 100 nM. Then `COc1ccc(-c2nnc(N[C@@H]3CCCC[C@H]3O)n3nc(C)cc23)c(OC(F)(F)F)c1` [Compound 392, (1R,2R)-2-({4-[4-methoxy-2-(trifluoromethoxy)phenyl]-2-methylpyrazolo[1,5-d][1,2,4]triazin-7-yl}amino)cyclohexan-1-ol], with 10 to 100 nM; and `COc1ccc(-c2nnc(N[C@H]3C[C@@](C)(O)C3)n3ccc(F)c23)c(OC(F)(F)F)c1` [Compound 54, (1s,3s)-3-({8-fluoro-1-[4-methoxy-2-(trifluoromethoxy)phenyl]pyrrolo[1,2-d][1,2,4]triazin-4-yl}amino)-1-methylcyclobutan-1-ol], with 10 to 100 nM.

The record behind these values is US20250179078A1, “INHIBITORS OF NLRP3” (PTC THERAPEUTICS, INC., priority 2022, published 2025).
